The record followed here is PubChem BioAssay AID588624 (NMMLSC, 2011).

pEC50: −log10 of the molar value. Calls of active or inactive are those of the source.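 Rule for the calls: active = half-maximal concentration at most 10 µM with response span of at least 30% and a trustworthy curve fit; inactive = the rest.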

The target in the first assay is Cell division control protein 42 homolog (Homo sapiens) (UniProt P60953). The assay is described as follows: constitutively active Cdc42 guanine nucleotide binding blockers – biochemical, activated mutant, bead multiplex, flow cytometry, round 2, selectivity assay for Rab7 inhibitor project, SAR follow-up (AID 588624). The following applies: GST-Cdc42 act beads, Bodipy-GTP binding.
Sequence of Cell division control protein 42 homolog (Homo sapiens) (P60953 whole entry, looked up): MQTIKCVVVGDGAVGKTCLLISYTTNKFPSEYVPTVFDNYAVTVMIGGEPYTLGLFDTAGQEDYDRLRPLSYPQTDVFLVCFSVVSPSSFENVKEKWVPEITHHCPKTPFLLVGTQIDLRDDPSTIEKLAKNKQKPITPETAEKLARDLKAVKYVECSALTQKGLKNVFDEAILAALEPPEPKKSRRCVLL
Regarding `CC1(C)Cc2c(sc(NC(=S)NC(=O)c3ccccc3Br)c2C(=O)O)CO1`, the pEC50 is 4.53. Consider `Cc1ccccc1C(=O)NC(=S)Nc1sc2c(c1C(=O)O)CC(C)(C)OC2`, for which the negative logarithm of the EC50 (pEC50) was 5.87. In the case of `CC1(C)Cc2c(sc(NC(=S)NC(=O)c3cccc(F)c3)c2C(=O)O)CO1`, the pEC50 was 5.23.

Compound `CC1(C)Cc2c(sc(NC(=S)NC(=O)c3ccc(Br)cc3)c2C(=O)O)CO1` gave a pEC50 of 4.49. On the same count and under the same terms, under `CC1(C)Cc2c(sc(NC(=S)NC(=O)C3CCCCC3)c2C(=O)O)CO1` stands 5.50.

For `CCC1(C)Cc2c(sc(NC(=S)NC(=O)c3ccccc3)c2C(=O)O)CO1` (centres undefined), the pEC50 was 6.75. The compound `O=C(NC(=S)Nc1sc2c(c1C(=O)O)CCOC2)c1ccccc1` gave a negative logarithm of the EC50 (pEC50) of 4.90. Same read-out and setting: the figure for `CC1(C)Cc2c(sc(NC(=S)NC(=O)c3ccccc3F)c2C(=O)O)CO1` is 5.68; for `CC(C)(C)C1Cc2c(sc(NC(=S)NC(=O)c3ccccc3)c2C(=O)O)CO1` (centres undefined) it is 6.03.

Take `COc1cccc(C(=O)NC(=S)Nc2sc3c(c2C(=O)O)CC(C)(C)OC3)c1`: the pEC50 is 5.88. The same measure, in the same setting: the figure for `CC1Cc2c(sc(NC(=S)NC(=O)c3ccccc3)c2C(=O)O)CO1` (centres undefined) is 5.10; for `CC1(C)Cc2c(sc(NC(=S)NC(=O)c3ccco3)c2C(=O)O)CO1` it is 6.49; for `CC1(C)Cc2c(sc(NC(=S)NC(=O)c3cccc(Br)c3)c2C(=O)O)CO1` it is 4.39. Same read-out and setting: under `CC1(C)Cc2c(sc(NC(=S)NC(=O)c3ccc(F)cc3)c2C(=O)O)CO1` stands 6.16.

Staying with this assay, now noted: GST-Cdc42 act beads, Bodipy-GTP binding, at 100 µM (top of the series).
Regarding `Cc1ccc(C(=O)NC(=S)Nc2sc3c(c2C(=O)O)CC(C)(C)OC3)cc1`, the “percent response of GTP binding” value is “inactive”. Still for that read-out and setting: under `Cc1cccc(C(=O)NC(=S)Nc2sc3c(c2C(=O)O)CC(C)(C)OC3)c1` stands “inactive”. With `CC1(C)Cc2c(sc(NC(=S)Nc3ccccc3)c2C(=O)O)CO1`, the “percent response of GTP binding” value was “inactive”. With `COc1ccc(C(=O)NC(=S)Nc2sc3c(c2C(=O)O)CC(C)(C)OC3)cc1`, the “percent response of GTP binding” value was “inactive”. Still for that read-out and setting: under `O=C(NC(=S)Nc1sc2c(c1C(=O)O)CCOC2)c1ccccc1` stands “inactive”; under `CC1(C)CCc2sc(NC(=S)NC(=O)c3ccccc3)c(C(=O)O)c2C1`, “inactive”; under `CC1(C)Cc2c(sc(NC(=S)NC(=O)c3cccs3)c2C(=O)O)CO1`, “inactive”. Same read-out and setting: the entry for `O=C(NC(=S)Nc1sc2c(c1C(=O)O)CC1(CCCC1)OC2)c1ccccc1` is “inactive”. With `CC1(C)Cc2c(sc(NC(=O)NC(=O)c3ccccc3)c2C(=O)O)CO1`, the “percent response of GTP binding” value was “inactive”. Take `COc1ccccc1C(=O)NC(=S)Nc1sc2c(c1C(=O)O)CC(C)(C)OC2`: the “percent response of GTP binding” value is “inactive”.
